pIC50: −log10 of the molar value. Active and inactive are the calls of the source. The rule behind the calls is not given here.
How the values were obtained:
[1] = Inhibition of cell proliferation of human EBC1 cells after 72 hrs by SRB assay; settings: EBC-1, 72 h
EBC-1 [2] = test: Inhibition of cell proliferation of human EBC1 cells at 10 uM after 72 hrs by SRB assay; type: functional
[3] = biological target: T1, Hepatocyte growth factor receptor (Homo sapiens, UniProt P08581); test: Inhibition of recombinant c-Met (unknown origin) using poly (Glu,Tyr)4:1 substrate incubated for 60 mins by ELISA method
[4] = biological target: T1, Hepatocyte growth factor receptor; test: Inhibition of c-Met (unknown origin)
[5] = biological target: T1, Hepatocyte growth factor receptor; test: Inhibition of recombinant c-Met (unknown origin) at 10 uM using poly (Glu,Tyr)4:1 substrate incubated for 60 mins by ELISA method
EBC-1 [6] = settings: Homo sapiens, 1 uM
Description: Inhibition of cell proliferation of human EBC1 cells at 1 uM after 72 hrs by SRB assay

Row | SMILES | pIC50 [1] | also measured
1 | CN1CCN(CCOc2cnc(-c3cccc(Cn4nc(-n5ccc6ccc(F)cc65)ccc4=O)c3)nc2)CC1 | 6.89 | –
2 | CN(C)CCCCOC(=O)Nc1cccc(Cn2nc(Nc3ccccc3F)ccc2=O)c1 | – | inhibition (EBC-1 [2]): inactive
3 | CN1CCN(CCCCCOC(=O)Nc2cccc(Cn3nc(-n4ccc5ccc(F)cc54)ccc3=O)c2)CC1 | ≥ 6.00 | –
4 | O=C(Nc1cccc(Cn2nc(-n3ccc4ccc(F)cc43)ccc2=O)c1)OCCCCn1cccn1 | ≥ 6.00 | –
5 | CN(C)CCOCCOC(=O)Nc1cccc(Cn2nc(-n3ccc4ccc(F)cc43)ccc2=O)c1 | ≥ 6.00 | –
6 | CN(C)CCCCOC(=O)Nc1cccc(Cn2nc(-n3ccc4ccc(F)cc43)ccc2=O)c1 | ≥ 6.00 | –
7 | COCCCOc1cnc(-c2cccc(Cn3nc(-n4ccc5ccc(F)cc54)ccc3=O)c2)nc1 | 6.57 | –
8 | CCOC(=O)Nc1cccc(Cn2nc(-n3ccc4ccc(F)cc43)ccc2=O)c1 | – | pIC50 [3]: < 5.00
9 | O=C(Nc1cccc(Cn2nc(-n3ccc4ccc(F)cc43)ccc2=O)c1)OCCCCN1CCOCC1 | ≥ 6.00 | –
10 | CN1CCN(CCCOc2cnc(-c3cccc(Cn4nc(-n5ccc6ccc(F)cc65)ccc4=O)c3)nc2)CC1 | 6.70 | –
11 | Nc1ccc(Cn2nc(Nc3ccccc3)ccc2=O)cc1 | – | pIC50 [4]: 5.00
12 | CN(C)CCCCOC(=O)Nc1cccc(Cn2nc(Nc3ccccc3)ccc2=O)c1 | < 5.00 | inhibition (EBC-1 [2]): inactive
13 | Cc1ccc(Nc2ccc(=O)n(Cc3cccc(NC(=O)OCCCCN(C)C)c3)n2)cc1 | – | inhibition [5]: 55.5%; inhibition (EBC-1 [2]): inactive
14 | CN(C)CCCCOC(=O)Nc1cccc(Cn2nc(Nc3ccc(F)cc3)ccc2=O)c1 | – | inhibition (EBC-1 [2]): inactive
15 | COCCOc1ccc2c(OCCn3nc(-n4ccc5ccc(F)cc54)ccc3=O)ccnc2c1 | 7.68 | –
16 | Cc1cccc(Nc2ccc(=O)n(Cc3cccc(NC(=O)OCCCCN(C)C)c3)n2)c1 | – | inhibition (EBC-1 [2]): inactive
17 | COc1cnc(-c2cccc(Cn3nc(-n4ccc5ccc(F)cc54)ccc3=O)c2)nc1 | < 6.00 | inhibition (EBC-1 [6]): inactive

— ChEMBL document CHEMBL3414492, “Enhancing the cellular anti-proliferation activity of pyridazinones as c-met inhibitors using docking analysis” (Eur J Med Chem, 2015)
